Results on two compounds are retold here after patent US20150133543A1, “TOPICAL GEL COMPOSITION COMPRISING AN INGENOL DERIVATIVE AND A SOLVENT MIXTURE” (LEO Laboratories Limited, priority 2012, published 2015).

In brackets after ≈: the same amount, converted by molar mass. Read-outs that look alike come from different tables or passages of the source.

The nature of data set [1]: Solubility of ingenol-3-angelate in co-solvents. The data set is classed as physicochemical. Conditions: organic solvent or mixture. An excerpt:
In order to effect a highly efficient dissolution of the ingenol derivative it may be favourably to add a co-solvent to the composition. The co-solvent may be selected from the group consisting of lower alcohols, such as n-propanol, isopropanol, n-butanol, 2-butanol or benzyl alcohol, diols such as propylene glycol, a pyrrolidone such as N-methylpyrrolidone or N-hydroxyalkylpyrrolidone, an azone, ethyl acetate, dodecyl amine, diethylene glycol monoethyl ether, a fatty acid such as oleic or lauric acid, propylene carbonate, menthol or limolene. In particular, ingenol-3-angelate is soluble to freely soluble in the co-solvents benzyl alcohol (201-223 mg/ml), N-methylpyrrolidone (104-260 mg/ml), ethyl acetate (102-255 mg/ml), isopropanol (225-248 mg/ml) and diethylene glycol monoethyl ether (57-114 mg/ml). Some of these co-solvents, such as lower alcohols, may also, as required, act as penetration enhancers aiding the penetration of the ingenol derivative into the viable layers of the skin.

For data set [2] the following is noted: oral administration to rats, versus a formulation in lipid alone; cited from earlier work.

Broadly, the solubility is the concentration that dissolves in the medium under given conditions. Consider `C/C=C(/C)C(=O)O[C@H]1C(C)=C[C@]23C(=O)[C@@H](C=C(CO)[C@@H](O)[C@]12O)[C@H]1[C@@H](C[C@H]3C)C1(C)C` [ingenol-3-angelate, 2-methyl-2(Z)-butenoic acid (1aR,2S,5R,5aS,6S,8aS,9R,10aR)-5,5a-dihydroxy-4-(hydroxymethyl)-1,1,7,9-tetramethyl-11-oxo-1a,2,5,5a,6,9,10,10a-octahydro-1H-2,8a-methanocyclopenta[a]cyclopropa[e]cyclodecen-6-yl ester], for which the solubility in data set [1] (co-solvent N-methylpyrrolidone, read-out: solubility in N-methylpyrrolidone) lay in the range of 104 to 260 mg/mL (≈ 242 to 604 mM); in data set [1] (co-solvent benzyl alcohol, read-out: solubility in benzyl alcohol) it was 201 to 223 mg/mL (≈ 467 to 518 mM); in data set [1] (co-solvent diethylene glycol monoethyl ether, read-out: solubility in diethylene glycol monoethyl ether), 57 to 114 mg/mL (≈ 132 to 265 mM); in data set [1] (co-solvent ethyl acetate, read-out: solubility in ethyl acetate), 102 to 255 mg/mL (≈ 237 to 592 mM); in data set [1] (co-solvent isopropanol, read-out: solubility in isopropanol), 225 to 248 mg/mL (≈ 523 to 576 mM).

Regarding `C=C1/C(=C\C=C2/CCC[C@]3(C)[C@@H]([C@H](C)/C=C/C=C/C(O)(CC)CC)CC[C@@H]23)C[C@@H](O)C[C@@H]1O` [seocalcitol], the bioavailability of seocalcitol entry in data set [2] is listed as “not improved”.
